In the NIST ThermoML archive (doi:10.1016/j.fluid.2019.03.023) one finds activity coefficient data, which are given here for 33 compounds.

This series can be described thus: activity coefficient (dimensionless); of the first substance listed, at infinite dilution; xn = mol fraction of the nth substance listed. The conditions noted are these: 101.33 kPa, Liquid, Chromatography, x1 = 0.

Numbers after ± are expanded uncertainties.

Consider `CCCCCC` [hexane] + CCCCCCCCCCCCCC[P+](CCCCCC)(CCCCCC)CCCCCC.N#C[N-]C#N, for which the activity coefficient (313.15 K) amounted to 1.16 ± 0.12, the activity coefficient (323.15 K) is 1.24 ± 0.13, the activity coefficient (333.15 K) was 1.32 ± 0.14 and the activity coefficient (343.15 K) came out at 1.39 ± 0.14.
In the same order, the values of `CCCCCCC` [heptane] + CCCCCCCCCCCCCC[P+](CCCCCC)(CCCCCC)CCCCCC.N#C[N-]C#N are 1.36 ± 0.14, 1.43 ± 0.15, 1.52 ± 0.16 and 1.61 ± 0.17.
On the same counts, the results for `Cc1ccc(C)cc1` [1,4-dimethylbenzene] + CCCCCCCCCCCCCC[P+](CCCCCC)(CCCCCC)CCCCCC.N#C[N-]C#N are 0.602 ± 0.064, 0.64 ± 0.068, 0.68 ± 0.071 and 0.706 ± 0.074.
On the same counts, the results for `C1=CCCCC1` [cyclohexene] + CCCCCCCCCCCCCC[P+](CCCCCC)(CCCCCC)CCCCCC.N#C[N-]C#N are 0.647 ± 0.068, 0.709 ± 0.074, 0.76 ± 0.079 and 0.813 ± 0.084.
In the case of `c1ccsc1` [thiophene] + CCCCCCCCCCCCCC[P+](CCCCCC)(CCCCCC)CCCCCC.N#C[N-]C#N, the activity coefficient is, setting by setting: (313.15 K) 0.372 ± 0.044; (323.15 K) 0.383 ± 0.045; (333.15 K) 0.412 ± 0.048; (343.15 K) 0.429 ± 0.049.
On to `Cc1ccccc1` [toluene] + CCCCCCCCCCCCCC[P+](CCCCCC)(CCCCCC)CCCCCC.N#C[N-]C#N, for which the activity coefficient stood at 0.419 ± 0.048 (313.15 K), 0.458 ± 0.051 (323.15 K), 0.489 ± 0.054 (333.15 K) and 0.523 ± 0.057 (343.15 K).
In the same order, the values of `CCc1ccccc1` [ethylbenzene] + CCCCCCCCCCCCCC[P+](CCCCCC)(CCCCCC)CCCCCC.N#C[N-]C#N are 0.567 ± 0.061, 0.606 ± 0.064, 0.653 ± 0.069 and 0.7 ± 0.073.
On the same counts, the results for `Cc1cccc(C)c1` [1,3-dimethylbenzene] + CCCCCCCCCCCCCC[P+](CCCCCC)(CCCCCC)CCCCCC.N#C[N-]C#N are 0.633 ± 0.067, 0.654 ± 0.069, 0.689 ± 0.072 and 0.716 ± 0.075.
On the same counts, the results for `CCCCCCCCC` [nonane] + CCCCCCCCCCCCCC[P+](CCCCCC)(CCCCCC)CCCCCC.N#C[N-]C#N are 1.8 ± 0.19, 1.93 ± 0.2, 2.09 ± 0.22 and 2.24 ± 0.23.
Take `CCO` [ethanol] + CCCCCCCCCCCCCC[P+](CCCCCC)(CCCCCC)CCCCCC.N#C[N-]C#N: the activity coefficient by setting is: (313.15 K) 0.339 ± 0.042; (323.15 K) 0.359 ± 0.043; (333.15 K) 0.383 ± 0.045; (343.15 K) 0.401 ± 0.047.
In the same order, the values of `CCCCCCCCCC` [decane] + CCCCCCCCCCCCCC[P+](CCCCCC)(CCCCCC)CCCCCC.N#C[N-]C#N are 2.19 ± 0.23, 2.34 ± 0.25, 2.54 ± 0.27 and 2.74 ± 0.29.
In the same order, the values of `C#CCCCC` [1-hexyne] + CCCCCCCCCCCCCC[P+](CCCCCC)(CCCCCC)CCCCCC.N#C[N-]C#N are 0.442 ± 0.05, 0.513 ± 0.056, 0.593 ± 0.063 and 0.669 ± 0.07.
In the same order, the values of `CCC(C)=O` [butanone] + CCCCCCCCCCCCCC[P+](CCCCCC)(CCCCCC)CCCCCC.N#C[N-]C#N are 0.422 ± 0.048, 0.448 ± 0.051, 0.478 ± 0.053 and 0.513 ± 0.056.
On to `C=CCCCCC` [1-heptene] + CCCCCCCCCCCCCC[P+](CCCCCC)(CCCCCC)CCCCCC.N#C[N-]C#N, for which the activity coefficient (313.15 K) was found to be 1.09 ± 0.11, the activity coefficient (323.15 K) stood at 1.13 ± 0.12, the activity coefficient (333.15 K) was 1.17 ± 0.12 and the activity coefficient (343.15 K) amounted to 1.22 ± 0.13.
On the same counts, the results for `C1CCCCCCC1` [cyclooctane] + CCCCCCCCCCCCCC[P+](CCCCCC)(CCCCCC)CCCCCC.N#C[N-]C#N are 0.89 ± 0.091, 0.928 ± 0.095, 0.978 ± 0.099 and 1.05 ± 0.11.
On the same counts, the results for `CCCCO` [butan-1-ol] + CCCCCCCCCCCCCC[P+](CCCCCC)(CCCCCC)CCCCCC.N#C[N-]C#N are 0.421 ± 0.048, 0.445 ± 0.05, 0.453 ± 0.051 and 0.47 ± 0.052.
As to `C1CCOC1` [tetrahydrofuran] + CCCCCCCCCCCCCC[P+](CCCCCC)(CCCCCC)CCCCCC.N#C[N-]C#N, the activity coefficient was determined as 0.351 ± 0.043 (313.15 K), 0.365 ± 0.044 (323.15 K), 0.384 ± 0.045 (333.15 K) and 0.404 ± 0.047 (343.15 K).
On the same counts, the results for `c1ccccc1` [benzene] + CCCCCCCCCCCCCC[P+](CCCCCC)(CCCCCC)CCCCCC.N#C[N-]C#N are 0.319 ± 0.04, 0.363 ± 0.044, 0.403 ± 0.047 and 0.44 ± 0.05.
On the same counts, the results for `C=CCCCCCCCC` [1-decene] + CCCCCCCCCCCCCC[P+](CCCCCC)(CCCCCC)CCCCCC.N#C[N-]C#N are 1.58 ± 0.17, 1.77 ± 0.18, 1.98 ± 0.21 and 2.19 ± 0.23.
In the same order, the values of `CO` [methanol] + CCCCCCCCCCCCCC[P+](CCCCCC)(CCCCCC)CCCCCC.N#C[N-]C#N are 0.306 ± 0.04, 0.323 ± 0.041, 0.344 ± 0.042 and 0.361 ± 0.044.
With `C#CCCC` [1-pentyne] + CCCCCCCCCCCCCC[P+](CCCCCC)(CCCCCC)CCCCCC.N#C[N-]C#N, the activity coefficient is 0.413 ± 0.048 (313.15 K), 0.465 ± 0.052 (323.15 K), 0.547 ± 0.059 (333.15 K) and 0.619 ± 0.066 (343.15 K).
In the same order, the values of `C1CCCCC1` [cyclohexane] + CCCCCCCCCCCCCC[P+](CCCCCC)(CCCCCC)CCCCCC.N#C[N-]C#N are 0.733 ± 0.076, 0.78 ± 0.081, 0.832 ± 0.085 and 0.901 ± 0.092.
On the same counts, the results for `O` [water] + CCCCCCCCCCCCCC[P+](CCCCCC)(CCCCCC)CCCCCC.N#C[N-]C#N are 1.95 ± 0.2, 1.82 ± 0.19, 1.73 ± 0.18 and 1.6 ± 0.17.
In the same order, the values of `CCC(C)(C)C` [2,2-dimethylbutane] + CCCCCCCCCCCCCC[P+](CCCCCC)(CCCCCC)CCCCCC.N#C[N-]C#N are 1.11 ± 0.11, 1.2 ± 0.12, 1.28 ± 0.13 and 1.35 ± 0.14.
For `C=CCCCCCCC` [1-nonene] + CCCCCCCCCCCCCC[P+](CCCCCC)(CCCCCC)CCCCCC.N#C[N-]C#N, the activity coefficient came to 1.41 ± 0.15 (313.15 K), 1.53 ± 0.16 (323.15 K), 1.67 ± 0.17 (333.15 K) and 1.82 ± 0.19 (343.15 K).
On the same counts, the results for `CC(C)=O` [acetone] + CCCCCCCCCCCCCC[P+](CCCCCC)(CCCCCC)CCCCCC.N#C[N-]C#N are 0.35 ± 0.043, 0.363 ± 0.044, 0.383 ± 0.045 and 0.405 ± 0.047.
Regarding `C=CCCCC` [hex-1-ene] + CCCCCCCCCCCCCC[P+](CCCCCC)(CCCCCC)CCCCCC.N#C[N-]C#N, the activity coefficient (313.15 K) is 0.915 ± 0.093, the activity coefficient (323.15 K) amounted to 0.979 ± 0.1, the activity coefficient (333.15 K) was 1.06 ± 0.11 and the activity coefficient (343.15 K) came to 1.11 ± 0.11.
As for `CCCO` [propan-1-ol] + CCCCCCCCCCCCCC[P+](CCCCCC)(CCCCCC)CCCCCC.N#C[N-]C#N, the activity coefficient runs as follows: (313.15 K) 0.396 ± 0.046; (323.15 K) 0.41 ± 0.047; (333.15 K) 0.424 ± 0.049; (343.15 K) 0.443 ± 0.05.
Turning to `CCCCC` [pentane] + CCCCCCCCCCCCCC[P+](CCCCCC)(CCCCCC)CCCCCC.N#C[N-]C#N, the activity coefficient (313.15 K) is 1 ± 0.1, the activity coefficient (323.15 K) was 1.06 ± 0.11, the activity coefficient (333.15 K) is 1.12 ± 0.11 and the activity coefficient (343.15 K) was 1.19 ± 0.12.
In the same order, the values of `Cc1ccccc1C` [1,2-dimethylbenzene] + CCCCCCCCCCCCCC[P+](CCCCCC)(CCCCCC)CCCCCC.N#C[N-]C#N are 0.525 ± 0.057, 0.566 ± 0.061, 0.613 ± 0.065 and 0.651 ± 0.069.
In the same order, the values of `CC#N` [acetonitrile] + CCCCCCCCCCCCCC[P+](CCCCCC)(CCCCCC)CCCCCC.N#C[N-]C#N are 0.574 ± 0.062, 0.6 ± 0.064, 0.624 ± 0.066 and 0.651 ± 0.069.
On the same counts, the results for `C=CCCC` [1-pentene] + CCCCCCCCCCCCCC[P+](CCCCCC)(CCCCCC)CCCCCC.N#C[N-]C#N are 0.796 ± 0.082, 0.858 ± 0.088, 0.922 ± 0.094 and 0.994 ± 0.1.
Turning to `C#CCCCCC` [1-heptyne] + CCCCCCCCCCCCCC[P+](CCCCCC)(CCCCCC)CCCCCC.N#C[N-]C#N, the activity coefficient (313.15 K) is 0.485 ± 0.054, the activity coefficient (323.15 K) came to 0.57 ± 0.061, the activity coefficient (333.15 K) was determined as 0.644 ± 0.068 and the activity coefficient (343.15 K) amounted to 0.721 ± 0.075.
